Measured values taken from US11753403B2, “EIF4E inhibitors and uses thereof” (PIC Therapeutics, Inc., priority 2020, dated 2023).

molecular target: Human eIF4E (aa 28-217) / biotin labeled 4G2 peptide (Homo sapiens (Human), UniProt P06730); assay: Human eIF4E/4G2 binding assay (TR-FRET); conditions: Human eIF4E/4G2 TR-FRET binding assay; head says IC50, legend says EC50
Method in brief: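 Refolded His-tagged human eIF4E (aa 28-217), 82.5 nM working stock, preincubated 4 h at RT with compounds (10-point 2-fold series) in NaPi pH 6.5 buffer with DTT and gamma globulin. Biotin-4G2 peptide then added for 20 min, followed by Eu-streptavidin/APC-anti-His for 20 min; TR-FRET 665/615 nm ratio normalized, IC50 fitted.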

Human eIF4E (aa 28-217) / biotin labeled 4G2 peptide, sequence (P06730 28-217): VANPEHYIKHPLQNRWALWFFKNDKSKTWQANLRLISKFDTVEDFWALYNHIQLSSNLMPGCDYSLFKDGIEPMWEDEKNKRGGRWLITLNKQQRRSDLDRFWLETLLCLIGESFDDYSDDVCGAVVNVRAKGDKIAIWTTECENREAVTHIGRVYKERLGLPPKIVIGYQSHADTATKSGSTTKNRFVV

Q: With `CC(C)Cc1sc(Nc2nccc(Cl)c2C(=O)O)nc1-c1ccc(Cl)c(Cl)c1` [I-242] as the compound, how does the IC50 read?
A: The IC50 was no more than 1000 nM.

Q: `COc1ccnc(Nc2nc(-c3ccc(Cl)c(Cl)c3)c(CC(C)C)s2)c1C(=O)O` [I-243] was tested. Which IC50 did it give?
A: The IC50 was no more than 1000 nM.

Q: For `CC(C)Cc1sc(N2CCN(C(=O)OCc3ccccc3)C(C(=O)O)C2)nc1-c1ccc(Cl)c(Cl)c1` (stereo not shown) [I-244, 1-(benzyloxycarbonyl)-4-(4-(3,4-dichlorophenyl)-5-isobutylthiazol-2-yl)piperazine-2-carboxylic acid], which IC50 is on record?
A: Its IC50 is no more than 1000 nM.

Q: Which IC50 does the source give for `CCOC(=O)N1CCN(c2nc(-c3ccc(Cl)c(Cl)c3)c(CC(C)C)s2)CC1C(=O)O` (stereo not shown) [I-245, 4-(4-(3,4-dichlorophenyl)-5-isobutylthiazol-2-yl)-1-(ethoxycarbonyl)piperazine-2-carboxylic acid] here?
A: Its IC50 is 1000 to 10000 nM.

Q: For `CC(C)Cc1sc(N2CCN(C(=O)c3ccccc3)C(C(=O)O)C2)nc1-c1ccc(Cl)c(Cl)c1` (stereo not shown) [I-246, 1-benzoyl-4-(4-(3,4-dichlorophenyl)-5-isobutylthiazol-2-yl)piperazine-2-carboxylic acid], which IC50 is on record?
A: Its IC50 is 1000 to 10000 nM.

Q: For `CC(C)Cc1sc(N2CCN(C(=O)c3cccs3)C(C(=O)O)C2)nc1-c1ccc(Cl)c(Cl)c1` (stereo not shown) [I-248], which IC50 is on record?
A: Its IC50 is no more than 1000 nM.

Q: `CC(C)Cc1sc(N2CCN(C(=O)c3ncccn3)C(C(=O)O)C2)nc1-c1ccc(Cl)c(Cl)c1` (stereo not shown) [I-249] was tested. Which IC50 did it give?
A: The IC50 was 1000 to 10000 nM.

Q: For `CC(C)Cc1sc(N2CCN(C(=O)c3cccnc3)C(C(=O)O)C2)nc1-c1ccc(Cl)c(Cl)c1` (stereo not shown) [I-250], which IC50 is on record?
A: Its IC50 is 1000 to 10000 nM.

Q: `CNC(=O)N1CCN(c2nc(-c3ccc(Cl)c(Cl)c3)c(CC(C)C)s2)CC1C(=O)O` (stereo not shown) [I-251, 4-(4-(3,4-dichlorophenyl)-5-isobutylthiazol-2-yl)-1-(methylcarbamoyl)piperazine-2-carboxylic acid] was tested. Which IC50 did it give?
A: Its IC50 is 1000 to 10000 nM.

Q: How did the IC50 turn out when `CC(C)Cc1sc(N2CCN(C(=O)Nc3ccccc3)C(C(=O)O)C2)nc1-c1ccc(Cl)c(Cl)c1` (stereo not shown) [I-252] was run?
A: The IC50 was no more than 1000 nM.

Q: With `CC(C)Cc1sc(N2CCN(C(=O)OC(C)C)C(C(=O)O)C2)nc1-c1ccc(Cl)c(Cl)c1` (stereo not shown) [I-253, 4-(4-(3,4-dichlorophenyl)-5-isobutylthiazol-2-yl)-1-(isopropoxycarbonyl)piperazine-2-carboxylic acid] as the compound, how does the IC50 read?
A: The IC50 was 1000 to 10000 nM.

Q: Which IC50 does the source give for `CC(C)Cc1sc(Nc2ccncc2C(=O)O)nc1-c1ccc(Cl)c(Cl)c1` [I-254] here?
A: Its IC50 is 1000 to 10000 nM.

Q: How did the IC50 turn out when `CC(C)Cc1sc(Nc2cc(C(=O)O)ccc2-c2ccccc2)nc1-c1ccc(Cl)c(Cl)c1` [I-255] was run?
A: The IC50 was 1000 to 10000 nM.

Q: With `CC(C)Cc1sc(Nc2ccsc2C(=O)O)nc1-c1ccc(Cl)c(Cl)c1` [I-256] as the compound, how does the IC50 read?
A: Its IC50 is no more than 1000 nM.

Q: With `Cn1nnnc1-c1sc(Nc2ncccc2C(=O)O)nc1-c1ccc(Cl)c(Cl)c1` [I-257, 2-(4-(3,4-dichlorophenyl)-5-(1-methyl-1H-tetrazol-5-yl)thiazol-2-ylamino)nicotinic acid] as the compound, how does the IC50 read?
A: Its IC50 is no more than 1000 nM.

Q: With `CC(C)c1sc(Nc2ncccc2C(=O)O)nc1-c1ccc(Cl)c(Cl)c1` [I-258] as the compound, how does the IC50 read?
A: The IC50 was no more than 1000 nM.

Q: How did the IC50 turn out when `CC(C)c1sc(Nc2ncc(-c3ccccc3)cc2C(=O)O)nc1-c1ccc(Cl)c(Cl)c1` [I-259, 2-(4-(3,4-dichlorophenyl)-5-isopropylthiazol-2-ylamino)-5-phenylnicotinic acid] was run?
A: The IC50 was no more than 1000 nM.

Q: How did the IC50 turn out when `CC(C)c1sc(Nc2ncc(-c3cccs3)cc2C(=O)O)nc1-c1ccc(Cl)c(Cl)c1` [I-260] was run?
A: The IC50 was no more than 1000 nM.

Q: With `CC(C)c1sc(Nc2ncccc2C(=O)O)nc1-c1ccc(Cl)c(C(F)(F)F)c1` [I-261] as the compound, how does the IC50 read?
A: Its IC50 is no more than 1000 nM.

Q: `CC(C)c1sc(Nc2ncc(-c3ccccc3)cc2C(=O)O)nc1-c1ccc(Cl)c(C(F)(F)F)c1` [I-262, 2-(4-(4-chloro-3-(trifluoromethyl)phenyl)-5-isopropylthiazol-2-ylamino)-5-phenylnicotinic acid] was tested. Which IC50 did it give?
A: The IC50 was no more than 1000 nM.

Q: `CC(C)c1sc(Nc2ncc(-c3cccs3)cc2C(=O)O)nc1-c1ccc(Cl)c(C(F)(F)F)c1` [I-263] was tested. Which IC50 did it give?
A: Its IC50 is no more than 1000 nM.

Q: How did the IC50 turn out when `CC(C)c1sc(Nc2ncc(Cc3ccccc3)cc2C(=O)O)nc1-c1ccc(Cl)c(Cl)c1` [I-264] was run?
A: The IC50 was no more than 1000 nM.

Q: With `CC(C)c1sc(Nc2ncc(Cc3ccccc3)cc2C(=O)O)nc1-c1ccc(Cl)c(C(F)(F)F)c1` [I-265] as the compound, how does the IC50 read?
A: The IC50 was no more than 1000 nM.

Q: How did the IC50 turn out when `CC(C)c1sc(Nc2ncc(-c3cccc(F)c3)cc2C(=O)O)nc1-c1ccc(Cl)c(Cl)c1` [I-266] was run?
A: Its IC50 is no more than 1000 nM.

Q: How did the IC50 turn out when `COc1cccc(-c2cnc(Nc3nc(-c4ccc(Cl)c(Cl)c4)c(C(C)C)s3)c(C(=O)O)c2)c1` [I-267] was run?
A: Its IC50 is no more than 1000 nM.

Q: With `COc1cc(-c2cnc(Nc3nc(-c4ccc(Cl)c(Cl)c4)c(C(C)C)s3)c(C(=O)O)c2)ccn1` [I-268] as the compound, how does the IC50 read?
A: Its IC50 is no more than 1000 nM.

Q: Which IC50 does the source give for `Cn1nnnc1-c1sc(Nc2ccsc2C(=O)O)nc1-c1ccc(Cl)c(Cl)c1` [I-269, 3-(4-(3,4-dichlorophenyl)-5-(1-methyl-1H-tetrazol-5-yl)thiazol-2-ylamino)thiophene-2-carboxylic acid] here?
A: Its IC50 is 1000 to 10000 nM.

Q: How did the IC50 turn out when `CC(C)Cc1sc(Nc2cc(-c3ccccc3)sc2C(=O)O)nc1-c1ccc(Cl)c(Cl)c1` [I-270] was run?
A: The IC50 was no more than 1000 nM.

Q: Which IC50 does the source give for `CC(C)Cc1sc(Nc2cc(-c3ccc(F)cc3)sc2C(=O)O)nc1-c1ccc(Cl)c(Cl)c1` [I-271] here?
A: The IC50 was no more than 1000 nM.

Q: Which IC50 does the source give for `CC(C)Cc1sc(Nc2cc(-c3cccc(Cl)c3)sc2C(=O)O)nc1-c1ccc(Cl)c(Cl)c1` [I-272] here?
A: The IC50 was no more than 1000 nM.

Q: `CC(C)Cc1sc(Nc2cc(-c3cccnc3)sc2C(=O)O)nc1-c1ccc(Cl)c(Cl)c1` [I-273] was tested. Which IC50 did it give?
A: Its IC50 is no more than 1000 nM.

Q: Which IC50 does the source give for `CC(C)Cc1sc(Nc2cc(C(C)(C)C)sc2C(=O)O)nc1-c1ccc(Cl)c(Cl)c1` [I-274] here?
A: The IC50 was no more than 1000 nM.

Q: Which IC50 does the source give for `Cc1c(-c2ccccc2)sc(C(=O)O)c1Nc1nc(-c2ccc(Cl)c(Cl)c2)c(CC(C)C)s1` [I-275] here?
A: Its IC50 is no more than 1000 nM.

Q: For `CC(C)Cc1sc(Nc2ccsc2C(=O)NCCN)nc1-c1ccc(Cl)c(Cl)c1` [I-276, N-(2-aminoethyl)-3-(4-(3,4-dichlorophenyl)-5-isobutylthiazol-2-ylamino)thiophene-2-carboxamide], which IC50 is on record?
A: The IC50 was 1000 to 10000 nM.

Q: For `CC(C)c1sc(Nc2ccsc2C(=O)NCCN)nc1-c1ccc(Cl)c(Cl)c1` [I-277], which IC50 is on record?
A: Its IC50 is 1000 to 10000 nM.

Q: How did the IC50 turn out when `CC(C)c1sc(Nc2cc(-c3ccccc3)sc2C(=O)O)nc1-c1ccc(Cl)c(Cl)c1` [I-278] was run?
A: Its IC50 is no more than 1000 nM.

Q: Which IC50 does the source give for `CC(C)c1sc(Nc2cc(-c3ccccc3)sc2C(=O)O)nc1-c1ccc(Cl)c(C(F)(F)F)c1` [I-279, 3-(4-(4-chloro-3-(trifluoromethyl)phenyl)-5-isopropylthiazol-2-ylamino)-5-phenylthiophene-2-carboxylic acid] here?
A: Its IC50 is no more than 1000 nM.

Q: `CC(C)c1sc(Nc2c(C(=O)O)sc3ccccc23)nc1-c1ccc(Cl)c(Cl)c1` [I-280] was tested. Which IC50 did it give?
A: The IC50 was no more than 1000 nM.

Q: `CC(C)c1sc(Nc2c(C(=O)O)sc3ccccc23)nc1-c1ccc(Cl)c(C(F)(F)F)c1` [I-281] was tested. Which IC50 did it give?
A: Its IC50 is no more than 1000 nM.

Q: `CC(C)c1sc(Nc2ncc(-c3ccccn3)cc2C(=O)O)nc1-c1ccc(Cl)c(Cl)c1` [I-282, 6′-(4-(3,4-dichlorophenyl)-5-isopropylthiazol-2-ylamino)-2,3′-bipyridine-5′-carboxylic acid] was tested. Which IC50 did it give?
A: Its IC50 is no more than 1000 nM.

Q: With `CC(C)c1sc(Nc2ncc(C3CC3)cc2C(=O)O)nc1-c1ccc(Cl)c(Cl)c1` [I-283] as the compound, how does the IC50 read?
A: The IC50 was no more than 1000 nM.

Q: With `CC(C)c1sc(Nc2ncccc2C(=N)N)nc1-c1ccc(Cl)c(Cl)c1` [I-284, 2-(4-(3,4-dichlorophenyl)-5-isopropylthiazol-2-ylamino)nicotinimidamide] as the compound, how does the IC50 read?
A: The IC50 was greater than 10000 nM.

Q: Which IC50 does the source give for `CC(C)c1sc(Nc2ncc(-c3ccccc3)cc2C(=N)N)nc1-c1ccc(Cl)c(Cl)c1` [I-285] here?
A: Its IC50 is greater than 10000 nM.

Q: Which IC50 does the source give for `CC(C)Cc1sc(Nc2ccccc2C#N)nc1-c1ccc(Cl)c(Cl)c1` [I-286] here?
A: Its IC50 is greater than 10000 nM.

Q: How did the IC50 turn out when `COC(=O)c1ccc(Nc2nc(-c3ccc(Cl)c(Cl)c3)c(CC(C)C)s2)n1C` [I-287] was run?
A: The IC50 was greater than 10000 nM.

Q: How did the IC50 turn out when `COC(=O)c1ccc(Nc2nc(-c3ccc(Cl)c(Cl)c3)c(CC(C)C)s2)o1` [I-288] was run?
A: Its IC50 is greater than 10000 nM.
